Data reported in patent US12004868B2, “Liposomal mitigation of drug-induced inhibition of the cardiac IKr channel” (Signpath Pharma, Inc., priority 2011, dated 2024).
Structures can show the parent of a compound that is named as a salt. Where two headings read alike, the source gives them in different places. Marks after values point to notes of the source that are not given here.

Tests used:
[1] = biological target: hERG (Homo sapiens, UniProt Q12809); conditions: cited from earlier work
[2] = tested on: in vitro rabbit heart; assay: In vitro rabbit heart QTc intervals; set-up: dose or concentration left out as unconfirmed; conditions: liposomes 9:1
[3] = biological target: NaV1.5 (Homo sapiens, UniProt Q14524); conditions: literature; read-out: NaV1.5 IC50 (Doherty et al); cited from earlier work
Sequence of NaV1.5 (Q14524 whole entry): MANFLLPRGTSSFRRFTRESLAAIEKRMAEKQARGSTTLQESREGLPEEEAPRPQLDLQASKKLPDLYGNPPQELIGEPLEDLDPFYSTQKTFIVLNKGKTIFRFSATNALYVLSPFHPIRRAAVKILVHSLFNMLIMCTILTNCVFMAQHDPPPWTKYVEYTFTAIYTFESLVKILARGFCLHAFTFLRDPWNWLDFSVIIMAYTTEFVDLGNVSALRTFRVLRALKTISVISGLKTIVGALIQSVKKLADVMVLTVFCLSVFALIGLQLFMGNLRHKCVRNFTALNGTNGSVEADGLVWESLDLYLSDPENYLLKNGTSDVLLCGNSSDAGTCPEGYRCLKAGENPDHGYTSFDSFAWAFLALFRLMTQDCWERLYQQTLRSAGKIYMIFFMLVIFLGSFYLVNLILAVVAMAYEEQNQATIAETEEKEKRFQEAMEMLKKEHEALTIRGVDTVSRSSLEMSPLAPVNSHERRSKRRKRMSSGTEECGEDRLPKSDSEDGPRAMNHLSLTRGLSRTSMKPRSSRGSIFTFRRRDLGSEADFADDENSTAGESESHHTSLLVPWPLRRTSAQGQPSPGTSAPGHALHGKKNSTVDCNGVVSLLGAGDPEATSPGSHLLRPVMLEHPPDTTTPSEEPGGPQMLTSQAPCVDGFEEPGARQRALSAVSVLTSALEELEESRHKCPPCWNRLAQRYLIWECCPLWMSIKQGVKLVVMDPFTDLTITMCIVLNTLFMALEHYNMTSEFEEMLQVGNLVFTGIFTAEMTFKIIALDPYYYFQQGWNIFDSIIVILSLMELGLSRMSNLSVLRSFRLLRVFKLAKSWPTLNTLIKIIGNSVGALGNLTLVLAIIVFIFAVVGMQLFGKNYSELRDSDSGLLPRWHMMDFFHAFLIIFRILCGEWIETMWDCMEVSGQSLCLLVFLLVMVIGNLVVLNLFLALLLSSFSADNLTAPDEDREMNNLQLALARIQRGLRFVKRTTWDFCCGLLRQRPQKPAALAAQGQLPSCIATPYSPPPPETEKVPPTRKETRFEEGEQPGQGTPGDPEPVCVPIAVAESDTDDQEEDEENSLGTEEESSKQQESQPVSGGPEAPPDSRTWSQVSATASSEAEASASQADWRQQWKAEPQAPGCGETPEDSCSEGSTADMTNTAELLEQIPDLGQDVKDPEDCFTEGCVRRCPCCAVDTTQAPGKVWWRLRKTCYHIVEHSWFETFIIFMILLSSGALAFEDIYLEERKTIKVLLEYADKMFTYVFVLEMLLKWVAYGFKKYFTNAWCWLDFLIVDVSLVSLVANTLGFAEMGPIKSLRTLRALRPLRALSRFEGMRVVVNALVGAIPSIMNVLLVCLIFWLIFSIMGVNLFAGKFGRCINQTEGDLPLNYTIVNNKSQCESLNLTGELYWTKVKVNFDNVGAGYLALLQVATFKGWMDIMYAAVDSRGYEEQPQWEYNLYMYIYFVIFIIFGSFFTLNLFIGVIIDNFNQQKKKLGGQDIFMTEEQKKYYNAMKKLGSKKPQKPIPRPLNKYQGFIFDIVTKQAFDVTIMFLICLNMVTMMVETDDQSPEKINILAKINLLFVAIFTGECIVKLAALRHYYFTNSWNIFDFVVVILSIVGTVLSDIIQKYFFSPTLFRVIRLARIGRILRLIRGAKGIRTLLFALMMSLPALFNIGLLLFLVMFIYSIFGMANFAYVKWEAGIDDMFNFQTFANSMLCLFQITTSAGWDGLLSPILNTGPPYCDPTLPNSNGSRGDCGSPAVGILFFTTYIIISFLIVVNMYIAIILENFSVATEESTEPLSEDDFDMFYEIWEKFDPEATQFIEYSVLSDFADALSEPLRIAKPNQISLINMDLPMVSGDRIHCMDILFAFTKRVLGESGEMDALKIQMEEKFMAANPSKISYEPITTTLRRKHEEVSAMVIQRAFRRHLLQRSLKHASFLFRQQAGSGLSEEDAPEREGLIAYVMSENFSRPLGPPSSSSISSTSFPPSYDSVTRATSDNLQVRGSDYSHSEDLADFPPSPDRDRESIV

[4] = cited from earlier work; for Cmax: read-out: steady state Cmax
[5] = tested on: CaV; conditions: literature; read-out: CaV IC50 (Doherty et al); cited from earlier work
[6] = tested on: in vitro rabbit hearts; assay: Left ventricular pressure in in vitro rabbit hearts
[7] = tested on: rabbit heart
[8] = crizotinib intravenously; nilotinib orally up to 600 mg/kg; cited from earlier work
[9] = tested on: isolated rabbit Purkinje fibers; conditions: 5 μM; cited from earlier work
[10] = cited from earlier work; for incidence of QT prolongation: patients, Aloxi at doses above 2.25 mg, sotalol 1288 patients, vandetanib grade 3/4
[11] = cited from earlier work
[12] = biological target: IKs (Homo sapiens, UniProt P51787); conditions: literature; cited from earlier work
Sequence of IKs (P51787 whole entry): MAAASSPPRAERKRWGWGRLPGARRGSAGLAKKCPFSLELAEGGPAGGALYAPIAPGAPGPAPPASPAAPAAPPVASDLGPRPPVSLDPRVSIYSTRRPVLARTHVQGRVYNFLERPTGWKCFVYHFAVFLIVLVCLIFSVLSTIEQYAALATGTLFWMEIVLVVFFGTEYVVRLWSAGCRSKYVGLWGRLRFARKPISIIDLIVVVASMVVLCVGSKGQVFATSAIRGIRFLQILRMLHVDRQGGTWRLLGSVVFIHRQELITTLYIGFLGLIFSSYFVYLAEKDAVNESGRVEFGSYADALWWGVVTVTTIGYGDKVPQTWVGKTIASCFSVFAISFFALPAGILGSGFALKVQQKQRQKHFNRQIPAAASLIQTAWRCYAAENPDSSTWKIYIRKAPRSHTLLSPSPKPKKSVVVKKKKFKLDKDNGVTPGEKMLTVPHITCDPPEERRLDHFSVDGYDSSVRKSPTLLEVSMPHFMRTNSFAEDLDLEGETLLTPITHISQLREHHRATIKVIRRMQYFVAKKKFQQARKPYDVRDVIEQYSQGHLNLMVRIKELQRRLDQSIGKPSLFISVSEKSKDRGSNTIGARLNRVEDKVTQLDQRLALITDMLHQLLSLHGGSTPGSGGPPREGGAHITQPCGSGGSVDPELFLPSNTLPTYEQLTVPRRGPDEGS

[13] = cited from earlier work; remark: listed apart in the source
[14] = tested on: calcium channel; conditions: literature; read-out: calcium channel blocking EC50; cited from earlier work
[15] = tested on: in vitro rabbit heart
[16] = tested on: rabbit heart; remark: listed apart in the source
[17] = cancer patients given 500 mg BID
[18] = children with cancer, 280 mg/m^2 BID
[19] = crizotinib 2 mg/kg, vs baseline
[20] = crizotinib 3 mg/kg, vs baseline
[21] = read-out: hERG IC50, literature
[22] = Chinese patients given 400 mg BID
[23] = cancer patients given 400 mg BID

Sequence of hERG (Q12809 whole entry): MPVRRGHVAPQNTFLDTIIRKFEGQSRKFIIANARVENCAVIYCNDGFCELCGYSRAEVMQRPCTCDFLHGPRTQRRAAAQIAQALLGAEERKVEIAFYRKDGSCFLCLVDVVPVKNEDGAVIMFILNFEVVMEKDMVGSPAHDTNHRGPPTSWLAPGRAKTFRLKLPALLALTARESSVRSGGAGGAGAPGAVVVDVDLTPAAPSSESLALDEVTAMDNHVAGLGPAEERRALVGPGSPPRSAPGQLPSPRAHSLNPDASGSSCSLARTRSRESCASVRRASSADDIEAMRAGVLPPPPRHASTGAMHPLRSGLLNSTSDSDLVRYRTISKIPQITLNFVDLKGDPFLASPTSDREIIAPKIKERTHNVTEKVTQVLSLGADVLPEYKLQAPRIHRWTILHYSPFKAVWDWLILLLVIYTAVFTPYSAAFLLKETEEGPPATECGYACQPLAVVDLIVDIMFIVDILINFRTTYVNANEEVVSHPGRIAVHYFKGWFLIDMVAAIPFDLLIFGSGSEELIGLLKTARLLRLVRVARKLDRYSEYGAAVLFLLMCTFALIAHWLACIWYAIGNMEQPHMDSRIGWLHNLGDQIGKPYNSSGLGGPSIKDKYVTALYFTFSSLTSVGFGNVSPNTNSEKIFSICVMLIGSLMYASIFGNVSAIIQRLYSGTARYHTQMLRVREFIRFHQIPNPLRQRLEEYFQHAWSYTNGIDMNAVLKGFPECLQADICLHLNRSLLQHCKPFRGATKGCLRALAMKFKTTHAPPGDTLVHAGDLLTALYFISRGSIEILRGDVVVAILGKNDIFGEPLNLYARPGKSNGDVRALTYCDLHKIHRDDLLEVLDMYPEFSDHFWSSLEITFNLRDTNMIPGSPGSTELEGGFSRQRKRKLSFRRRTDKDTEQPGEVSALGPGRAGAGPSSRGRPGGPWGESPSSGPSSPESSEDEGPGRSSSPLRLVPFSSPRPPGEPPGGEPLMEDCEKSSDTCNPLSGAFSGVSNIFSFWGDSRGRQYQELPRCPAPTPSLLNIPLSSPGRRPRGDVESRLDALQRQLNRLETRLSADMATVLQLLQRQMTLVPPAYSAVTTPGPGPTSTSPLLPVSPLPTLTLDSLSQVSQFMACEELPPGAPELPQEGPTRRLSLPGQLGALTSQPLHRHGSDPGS

COc1ccc(CN(CCN(C)C)c2ccccn2)cc1 [Pyrilamine]
hERG blocker potency (in words) [1]: low potency hERG blocker

CC(=O)Oc1ccc2c3c1O[C@H]1[C@@H](OC(C)=O)C=C[C@H]4[C@@H](C2)N(C)CC[C@@]341 [heroin]
IC50 [1]: 427 µM

C[C@@H](Oc1cc(-c2cnn(C3CCNCC3)c2)cnc1N)c1c(Cl)ccc(F)c1Cl [Crizotinib]
effect on the QTc interval of in vitro rabbit hearts (in words) [2]: dose dependent prolongation of the QTc interval
IC50 [3]: 3.5 µM
steady state Cmax [4, 17]: 650 ng/mL
Cmax [4, 17]: 1500 nM
steady state Cmax [4, 18]: 630 ng/mL
Cmax [4, 18]: 1400 nM
IC50 [5]: 3.1 µM
effect on LVP (in words) [6]: decrease in LVP
QRS Intervals ([7]; crizotinib 1 mg/kg IV): 48 ms
QT Intervals ([7]; crizotinib 1 mg/kg IV): 189* ms
QTc interval (Van der Water) ([7]; crizotinib 1 mg/kg IV): 251* ms
QRS Intervals ([7]; crizotinib 2 mg/kg IV): 53* ms
QT Intervals ([7]; crizotinib 2 mg/kg IV): 205* ms
QTc interval (Van der Water) ([7]; crizotinib 2 mg/kg IV): 264* ms
RR Intervals ([7]; crizotinib 2 mg/kg IV): 324* ms
QT interval prolongation [7, 19]: 34 ms
RR interval prolongation [7, 19]: 67 ms
QRS Intervals ([7]; crizotinib 3 mg/kg IV): 56* ms
QT Intervals ([7]; crizotinib 3 mg/kg IV): 218* ms
QTc interval (Van der Water) ([7]; crizotinib 3 mg/kg IV): 273* ms
RR Intervals ([7]; crizotinib 3 mg/kg IV): 367* ms
PR interval prolongation [7, 20]: 23 ms
QRS interval prolongation [7, 20]: 13 ms
QT interval prolongation [7, 20]: 48 ms
QTc interval prolongation (Van der Water) [7, 20]: 38 ms
RR interval prolongation [7, 20]: 110 ms
RR Intervals ([7]; crizotinib loading dose 1 mg/kg IV): 294* ms
ECG effect in dogs (in words) [8]: increased PR-, QRS- and QT-intervals

CS(=O)(=O)CCNCc1ccc(-c2ccc3ncnc(Nc4ccc(OCc5cccc(F)c5)c(Cl)c4)c3c2)o1 [Lapatinib]
action potential duration (in words) [9]: prolong action potential duration

Arsenic trioxide
hERG blocker potency (in words) ([1]; literature): ineffective hERG blocker
IC50 [1, 21]: > 300 µM

COc1cc2c(Nc3ccc(Br)cc3F)ncnc2cc1OCC1CCN(C)CC1 [Vandetanib]
incidence of QT prolongation [10]: > 5%

[K+] [Potassium]
reduction of the QTc interval ([11]; plasma concentration raised by 1.5 mEq/L above baseline): 24%

O=C1c2cccc3c2[C@H](CCC3)CN1[C@@H]1CN2CCC1CC2 [Aloxi, palonasitron HCL]
incidence of EKG adverse events ([10]; doses above 2.25 mg): > 2%
incidence of bradycardia ([10]; doses above 2.25 mg): 4%
incidence of QT prolongation [10]: 5%

CCC(=O)C(CC(C)N(C)C)(c1ccccc1)c1ccccc1 (centres unmarked) [Methadone]
IC50 [1, 21]: 4.8 µM

COc1cccc2c1C(=O)c1c(O)c3c(c(O)c1C2=O)C[C@@](O)(C(=O)CO)C[C@@H]3O[C@H]1C[C@H](N)[C@H](O)[C@H](C)O1 [Doxorubicin]
IC50 [12]: 4.78 µM
QTc prolongation ([13]; 30 uM): 13%

CC(C)NCC(O)c1ccc(NS(C)(=O)=O)cc1 (centres unmarked) [Sotalol]
incidence of QT prolongation [10]: 2%

CCCCc1oc2ccc(NS(C)(=O)=O)cc2c1C(=O)c1ccc(OCCCN(CCCC)CCCC)cc1 [Dronedarone]
IC50 [1, 21]: 0.07 µM
IC50 ([1]; read-out: hERG IC50, wild type hERG tails at −40 mV following activation at +30 mV): 0.059 µM

CC(C)COCC(CN(Cc1ccccc1)c1ccccc1)N1CCCC1 (centres unmarked) [Bepridil]
EC50 [14]: 10 µM

Cc1cn(-c2cc(NC(=O)c3ccc(C)c(Nc4nccc(-c5cccnc5)n4)c3)cc(C(F)(F)F)c2)cn1 [Nilotinib]
effect on the QTc interval of in vitro rabbit hearts (in words) [15]: dose dependent prolongation of the QTc interval
steady state Cmax [4, 22]: 2161 ng/mL
Cmax [4, 22]: 4100 nM
steady state Cmax [4, 23]: 1754 ng/mL
Cmax [4, 23]: 3300 nM
IC50 [5]: > 3 µM
PR Intervals ([16]; nilotinib 2 mg/kg IV): 78 ms
QRS Intervals ([16]; nilotinib 2 mg/kg IV): 44* ms
QT Intervals ([16]; nilotinib 2 mg/kg IV): 182* ms
QTc Intervals (Van der Water) ([16]; nilotinib 2 mg/kg IV): 245* ms
PR Intervals ([16]; nilotinib 4 mg/kg IV): 80 ms
QRS Intervals ([16]; nilotinib 4 mg/kg IV): 46* ms
QT Intervals ([16]; nilotinib 4 mg/kg IV): 201* ms
QTc Intervals (Van der Water) ([16]; nilotinib 4 mg/kg IV): 262* ms
RR Intervals ([16]; nilotinib 4 mg/kg IV): 307 ms
QRS interval prolongation ([16]; nilotinib 4 mg/kg, vs baseline): 6 ms
QT interval prolongation ([16]; nilotinib 4 mg/kg, vs baseline): 41 ms
QTc interval prolongation ([16]; nilotinib 4 mg/kg, vs baseline): 36 ms
RR Intervals ([16]; nilotinib loading dose 2 mg/kg IV): 273 ms

COc1c(N2C[C@@H]3CCCN[C@@H]3C2)c(F)cc2c(=O)c(C(=O)O)cn(C3CC3)c12 [Moxifloxacin]
QTc prolongation ([13]; 100 uM): 22%

CC(C)NCC(O)COc1cccc2ccccc12 (centres unmarked) [propranolol]
decrease of risk of cardiac events ([11]; LQT1): 81%
subjects still developing cardiac events on adequate treatment ([11]; LQT1): 10%
subjects still developing cardiac events ([11]; LQT2): 23%
decrease of cardiac event risk ([11]; LQT2 subjects): 59%
subjects developing cardiac events on adequate treatment ([11]; LQT3): 32%

O=C(CCCN1CCC(O)(c2ccc(Cl)cc2)CC1)c1ccc(F)cc1 [Haloperidol]
hERG blocker potency (in words) [1]: high potency hERG blocker
